Experimental data published in paper PMC12291119, “In Vitro Selection of Cyclized, Glycosylated Peptide Antigens That Tightly Bind HIV High Mannose Patch Antibodies” (ACS Central Science, 2025).
Ends that are not written are not given here.

How the values were obtained:
[1] = biological target: PGT122; assay: Bead-based radiometric binding assay of ribosomally synthesized free peptides; conditions: free 3H-histidine-labelled peptide, no click glycosylation; 0, 100, 200, 400 nM antibody, 1 h room temperature, Protein G beads, LSC; Michaelis-Menten fit; preliminary
Description: The protocol used for cyclization while captured on resin was as follows: To 20 µL of crude translated peptide was added 80 µL of bind buffer with BME (50 mM Tris-HCl, pH 7.8, 300 mM NaCl, 5 mM BME) and 20 µL of HisPur™ Ni-NTA Resin (ThermoScientific). The mixture was tumbled at room temperature for 1 hour. Next, the mixture was spun down at 17,000 ×g, and the supernatant was carefully removed from the loosely-pelleted agarose.
The resin was washed three times with 160 µL of cyclization wash buffer with TCEP (50 mM Tris-HCl, pH 8.0, […]). To the resin was then added 160 µL of free peptide cyclization buffer (50 mM Tris-HCl, pH 8.0, 300 mM NaCl, 0.5 mM TCEP, 3.3 mM m-dibromoxylene, 33% (v/v) MeCN), and the mixture was covered in foil and tumbled at room temperature for 30 minutes. The supernatant was removed and 160 µL of cyclization wash buffer with BME (50 mM Tris-HCl, pH 8.0, 300 mM NaCl, 10 mM BME, 33% (v/v) MeCN) was added. The suspension was tumbled at room temperature for 10 minutes without aluminum foil to quench the reaction. The reaction was spun down, and the supernatant was removed. Next, the resin was resuspended in wash buffer (50 mM Tris-HCl, pH 7.8, 5 mM BME) and transferred to a 0.22 µm Ultrafree-MC Centrifugal Filter (MilliporeSigma). The tube was rinsed with 80 µL of wash buffer, and the rinse was added to the filter. The filter was then spun down at 10,000 ×g for 1 minute. The resin in the filter was washed twice with 160 µL of wash buffer. To elute the peptide, 20 µL 0.2% (v/v) TFA was added to the resin and allowed to sit at room temperature for 2 minutes before spinning down and collecting in a new tube. The elution step was carried out once more, with the eluent collected separately.
4. Radioactive Peptides for Bead-based Radiometric Binding Assay
For binding analysis, translation (50 µL) was carried out in the presence of PDF/MAP and 3H-histidine for radiolabeling. The crude peptides were purified by Ni-NTA agarose and, if the sequence contained two cysteine residues, was cyclized while captured on the Ni-NTA resin. The peptide eluents were combined and dialyzed as follows: To the combined eluents was added a solution of Triton X-100 in water for a final concentration of 0.1%.
Next, the peptides were dialyzed against 0.1% (v/v) Triton X-100 using a Slide-A-Lyzer™ MINI device (0.1 mL capacity, 3.5 kDa MWCO) (Thermo Scientific) at room temperature overnight. The dialyzed peptides were retrieved from the devices. The peptide solutions were concentrated to dryness by speedvac for the click reaction. […]
room temperature. While tumbling, Dynabeads™ Protein G (Invitrogen) were equilibrated with 1X selection buffer as follows: Steps were carried out using a multi-channel pipettor where possible. For each sequence, 8 µL of Protein G bead suspension was transferred to a 0.2 mL PCR tube in a strip. Next, 64 µL (8 bead vol.) of 1X selection buffer was added to the beads. The mixture was resuspended by gently vortexing, spun down briefly, and placed on a magnet for 1 minute. The supernatant was removed, and this wash was repeated two more times. The final supernatant was removed just prior to addition of the incubated peptide/antibody mixture. The mixture was allowed to tumble at room temperature for 30 minutes to capture antibodies and bound peptides. Next, the suspension was briefly spun down, placed on a magnet, and the supernatant was transferred to an individual 0.2 mL PCR tube. To wash the beads, 16 µL of 1X selection buffer was added, gently vortexed, spun down briefly, placed on a magnet for 1 minute, and the wash was transferred to the same PCR tube as the supernatant. This wash step was repeated twice more for a total of three washes, saved altogether with the supernatant as the “unbound” fraction. The beads were then resuspended in 50 µL of denaturing elute buffer. The suspension was heated at 95 °C for 5 minutes to denature […]

[2] = biological target: PGT122; assay: Bead-based radiometric binding assay of clones prepared as cDNA/mRNA-glycopeptide fusions; conditions: 2K CPM per sample, Protein G beads, LSC, preliminary
Description: antibodies, spun down briefly, placed on a magnet for 1 minute, and the eluent was transferred to an individual 0.2 mL PCR tube. The beads were washed with 50 µL of denaturing elute buffer, and the wash was placed into the same tube as the eluent. The combined eluent and wash represented the “bound” fraction. The beads were resuspended in 50 µL of denaturing elute buffer, vortexed, and directly placed into a vial with liquid scintillation cocktail for radioactivity measurements, though it was not included in calculations of fraction bound. Each of the tubes with the “unbound” and “bound” fractions were placed into vials for LSC. The tube in which the antibody and peptides were incubated were also measured by LSC, but not included in calculations of fraction bound. Fraction bound values for each antibody concentration after background adjustment were input into KaleidaGraph 4.1.1 for curve fitting to a […]
5. Clones Prepared as cDNA/mRNA-glycopeptide Fusions
Selected clones were also prepared as cDNA/mRNA-glycopeptide fusions for binding analysis. RNA (450-1000 pmol) was photo-crosslinked as described in Section IV.A.2 but with 10 µM transcribed RNA and 15 µM XL-PSO in 1X XL Buffer for annealing, and dilution to 100 µL for irradiation at 365 nm. XL-RNA was then purified by ethanol precipitation and 5% denaturing urea-PAGE with electroelution. Purified XL-RNA was translated in the presence of PDF/MAP and 3H-histidine for radiolabeling. Crude translation reactions were captured on Pierce™ Streptavidin UltraLink™ Resin (Thermo Scientific), subjected to reverse transcription, and cyclized as described for selection. Fusions were then washed and photo-eluted with 1X selection buffer instead of 0.2% (v/v) […]. […]
reverse transcription in preparation for photo-elution. Note: 2U3 was also cyclized despite having only one cysteine residue to better mimic its structure during selection. Fusions were then passed through 0.22 µm Ultrafree-MC Centrifugal Filters (MilliporeSigma), buffer exchanged by ethanol precipitation, and subjected to click reaction (5 µL) with Man9(GlcNAc)2-azide as described in Section II.A.8. Binding assays were performed analogously as with […]
as free peptides and cDNA/mRNA-glycopeptide fusions.
Name Click KD Ratio (No click : Click) KD Ratio (No click : Click) […]
a 2U3 was cyclized as a fusion but not as a free peptide.

[3] = test system: HIV pseudovirus panel; conditions: ref number not given, cited from earlier work
Text: We have sought to mimic HMP epitopes without using either the entire Env protein, which contains a plethora of “distracting” epitopes that easily elicit off-target antibodies; − or short glycopeptides directly derived from the Env sequence, which may not sufficiently recapitulate the HMP structure without the conformational support of the remaining Env protein. Aiming to design glycostructures that better mimic the glycan presentation in the HMP, we have pioneered various techniques for the directed evolution of DNA, , RNA, F-RNA, or peptide-supported , glycan clusters.

[4] = cDNA/mRNA-glycopeptide fusion, click-glycosylated with Man9(GlcNAc)2-azide
[5] = cDNA/mRNA-peptide fusion, no click glycosylation
[6] = diverse/representative HIV pseudovirus panel

Row | Substance | Kd [1] [nM] | Kd [2, 4] [nM] | Kd [2, 5] [nM] | breadth (fraction of HIV pseudovirus panel neutralized) [3, 6] [%] | median IC50 [3, 6] [µg/mL] | potency (EC50) ([3]; neutralization potency) [µg/mL]
1 | AFIAYYFDLSQPNLHSPNFTLKIGDIREAQCMLTCDSAKPNPRVVPILALLI (also: sidechain bridge or staple (positions not given here)) [2B3c, ribosomally synthesized PGT122 selection clone, cyclized] | 4490 | 140 | 99.7 |  |  | 
2 | AHSLFNFQVRLKQLPLDANGAVIGDIRIAECMNHTYTPLTFYIYSNHPTDIQ [GB1, ribosomally synthesized gl-PGT121 selection clone] | 181 |  |  |  |  | 
3 | AKTKTYLIRFHLDILPNDNLRSQKIRLIFGDKATVKGMITFLNDSELEWNFE [2U1, ribosomally synthesized PGT122 selection clone, tested with and without click glycosylation] |  | 29.8 | 82.5 |  |  | 
4 | AKTRTPMNLSGKSNIRYFFTIDNSTMFEDLFMRFPRSKEYHIELEEFKDLIR [2U7] | 1430 | 139 | 300 |  |  | 
5 | ALNLYQIVEFTIDESNDIVQLQIGDIRTADCMSLNKECYNIIFFSWDNHGKN (also: sidechain bridge or staple (positions not given here)) [2B4c, ribosomally synthesized PGT122 selection clone, cyclized] | 158 | 155 | 44.4 |  |  | 
6 | ANNFICIRNIGDIRSARCMNVSAGRYAPYREFYFDITYDDFNKNVNIVITPV (also: sidechain bridge or staple (positions not given here)) [2B8c, ribosomally synthesized PGT122 selection clone, cyclized] |  | 108 | 176 |  |  | 
7 | ANPRIIFFELSIRNNSLKLLRWHDTQGIFHDSMTELSQHAELPRFKFHSNAA [GU1, ribosomally synthesized gl-PGT121 selection clone] | 156 |  |  |  |  | 
8 | ANPSFSVQFIVDLIGPNVMRITLSNKPFATICPITEGESHISKRFNFQLTIS [2U3c, ribosomally synthesized PGT122 selection clone; cyclized as a fusion but not as a free peptide] |  | 449 | 281 |  |  | 
9 | AQYIDWEIDINQVPNQMNLSKPTWKSDITINKVKWSFYININQASNENTDNI [2U6, ribosomally synthesized PGT122 selection clone] | 166 | 173 | 96.7 |  |  | 
10 | ATLNIFSNFSIEPDSFYEIVLPIGDIRIAPCMSSFNRNGSTNNCYHFEINLF (also: sidechain bridge or staple (positions not given here)) [2B5c, ribosomally synthesized PGT122 selection clone, cyclized] | 212 | 85.9 | 314 |  |  | 
11 | AYPVYLRLPIGDIRIASCMFGDEPNTWTRDELNDYFYTESYNPQPITITFKC (also: sidechain bridge or staple (positions not given here)) [2B2c, ribosomally synthesized PGT122 selection clone, cyclized] | 1650 | 116 | 89 |  |  | 
12 | AYSIHFVCDINETPTNTSKAIFSIKCDITTPESTTRQLMITKHYHFPPTGTR (also: sidechain bridge or staple (positions not given here)) [2U8c, ribosomally synthesized PGT122 selection clone, cyclized] |  | 48.4 | 173 |  |  | 
13 | AYVISFSIDQPDLDRPNIIRISIGDIRSAKCMKLDTINFAYRDDSSEVCYEK (also: sidechain bridge or staple (positions not given here)) [2B7c, ribosomally synthesized PGT122 selection clone, cyclized] | 29.8 | 143 | 66.2 |  |  | 
14 | PGT128: broad and very potent HIV bnAb binding the High Mannose Patch |  |  |  | 72 | 0.02 | 0.02
